Data set [1] in a line: Aqueous solubility of the compound in phosphate buffered saline at pH 7.4. The settings on record: buffer. Type of data set: physicochemical.
Data set [2] in a line: Stability of the compound in water at neutral pH after 24 hrs. In kind it is physicochemical. The settings on record: buffer.

We go through 38 compounds from ChEMBL document CHEMBL2069300 (J Med Chem, 2012).

The structures appear in SMILES notation. In brackets after ≈: the same amount, converted by molar mass.

`COc1ccc(OC)c(S(=O)(=O)ON2C(=O)c3ccccc3C2=O)c1`: in data set [1], the solubility (usually the dissolved amount per volume that the medium holds) amounted to 453.9 µM (≈ 165 µg/mL).
For the compound `Nc1nc2ccc(S(=O)(=O)N3CCCCC3)cc2s1`, the solubility in data set [1] was determined as 338.8 µM (≈ 101 µg/mL).
As for `CCc1ccc(S(=O)(=O)ON2C(=O)c3ccccc3C2=O)cc1`, the solubility in data set [1] turned out to be 462 µM (≈ 153 µg/mL).
Take `COC(=O)c1ccc2c(c1)C(C)(C)C(/C=C/c1ccc(O)cc1)=[N+]2C`: the solubility in data set [1] worked out at 218.7 µM.
In turn, `Cc1cccc(N2COc3ccc4ccccc4c3C2)c1` came in with a solubility in data set [1] of 377.4 µM (≈ 104 µg/mL). This solubility is about 1.7-fold higher than that of the compound before.
Still for that read-out and setting: with `CCOc1ccc(/C=C/C2=[N+](C)c3ccc(C(=O)OC)cc3C2(C)C)cc1` the figure was 0.7 µM; with `COC(=O)c1ccc(/C=C/C2=[N+](C)c3ccc(OC)cc3C2(C)C)cc1`, 0.2 µM; with `CCCS(=O)(=O)c1oc(-c2cccs2)nc1S(=O)(=O)c1ccc(F)cc1`, 21.9 µM (≈ 9.1 µg/mL).
`CCS(=O)(=O)c1oc(-c2cccs2)nc1S(=O)(=O)c1ccccc1`: in data set [1], the solubility amounted to 49.9 µM (≈ 19.1 µg/mL).
Take `CC(C)CS(=O)(=O)c1oc(-c2cccs2)nc1S(=O)(=O)c1ccc(F)cc1`: the solubility in data set [1] was 17.6 µM (≈ 7.56 µg/mL).
Still for that read-out and setting: with `CC(C)S(=O)(=O)c1oc(-c2cccs2)nc1S(=O)(=O)c1ccccc1` the figure was 34.2 µM (≈ 13.6 µg/mL); with `Cc1c(C=O)c(C(=O)O)c(C)n1Cc1ccc(Cl)cc1`, 576 µM (≈ 168 µg/mL); with `O=Cc1nc2ccccc2n1Cc1ccc2ccccc2c1`, 42.1 µM (≈ 12.1 µg/mL).
For the compound `O=Cc1nc2ccccc2n1Cc1ccc(Cl)cc1Cl`, the solubility in data set [1] worked out at 15.3 µM (≈ 4.67 µg/mL).
Compound `COCC(=O)Oc1c(Sc2ccc(Cl)cc2)c(C)nn1-c1ccccc1` yielded a solubility in data set [1] of 493 µM (≈ 192 µg/mL).
With `CCCCNC(=O)Cn1sc2nc(C)cc(C)c2c1=O`, the solubility in data set [1] is 487 µM (≈ 143 µg/mL).
Turning to `COc1ccc(/C=C/C2=[N+](C)c3ccc(OC)cc3C2(C)C)cc1`, in data set [1], the solubility is 273.3 µM.
For `COC(=O)c1ccc2c(c1)C(C)(C)C(/C=C/c1ccc(OC)cc1)=[N+]2C`, the solubility in data set [1] amounted to 0.1 µM.
As to `Cc1[nH]c2ccccc2c1C(Nc1ccccc1)c1ccccc1` (centres undefined), in data set [2], the Stability result is on record as “Stable”.
Regarding `Cc1[nH]c2ccccc2c1C(Nc1ccccc1)c1ccc(Cl)cc1` (centres undefined), the Stability result in data set [2] was “Stable”.
Same read-out and setting: with `COc1ccc(C(Nc2ccccc2)c2c(C)[nH]c3ccccc23)cc1` (centres undefined) the entry was “Stable”; with `Cc1ccc(C(Nc2ccccc2)c2c(C)[nH]c3ccccc23)cc1` (centres undefined), “Stable”; with `Cc1[nH]c2ccccc2c1C(Nc1ccccc1)c1ccc(N(C)C)cc1` (centres undefined), “Stable”.
Still for that read-out and setting: in the case of `Cc1[nH]c2ccccc2c1C(Nc1ccccc1)c1ccc([N+](=O)[O-])cc1` (centres undefined) it was “Stable”; in that of `Cc1[nH]c2ccccc2c1C(C)Nc1ccccc1` (centres undefined), “Stable”.
As for `Cc1[nH]c2ccccc2c1C(Nc1ccccc1)c1ccc2ccccc2c1` (centres undefined), the Stability entry in data set [2] is recorded as “Stable”.
Regarding `Cc1[nH]c2ccccc2c1C(Nc1ccccc1)c1ccc(CCCO)cc1` (centres undefined), in data set [2], the Stability result is given as “Stable”. The same compound registered a solubility in data set [1] of 503.4 µM (≈ 187 µg/mL).
For the compound `Cc1[nH]c2ccccc2c1C(Nc1ccccc1)c1ccccc1Cl` (centres undefined), the Stability entry in data set [2] is “Stable”.
Regarding `Cc1[nH]c2ccccc2c1C(Nc1ccc(Cl)cc1)c1ccccc1Cl` (centres undefined), the Stability result in data set [2] is reported as “Stable”.
`COc1ccc(NC(c2ccccc2Cl)c2c(C)[nH]c3ccccc23)cc1` (centres undefined): the Stability result in data set [2] is given as “Stable”.
For the compound `Cc1ccc(NC(c2ccccc2Cl)c2c(C)[nH]c3ccccc23)cc1` (centres undefined), the Stability result in data set [2] is listed as “Stable”.
Take `Cc1[nH]c2ccccc2c1C(Nc1ccc(N(C)C)cc1)c1ccccc1Cl` (centres undefined): the Stability entry in data set [2] is “Stable”.
`Cc1[nH]c2ccccc2c1C(Nc1ccc([N+](=O)[O-])cc1)c1ccccc1Cl` (centres undefined): the Stability entry in data set [2] is “Stable”.
Still for that read-out and setting: with `Cc1[nH]c2ccccc2c1C(Nc1ccc(C(F)(F)F)cc1)c1ccccc1Cl` (centres undefined) the entry was “Stable”; with `COc1ccccc1NC(c1ccccc1Cl)c1c(C)[nH]c2ccccc12` (centres undefined), “Stable”.
Take `Cn1cc(C(Nc2ccccc2)c2ccccc2Cl)c2ccccc21` (centres undefined): the Stability entry in data set [2] is “Stable”.
With `Clc1ccccc1C(Nc1ccccc1)c1c[nH]c2ccccc12` (centres undefined), the Stability result in data set [2] is reported as “Stable”.
Regarding `Cc1[nH]c2ccccc2c1C(Sc1ccccc1)c1ccccc1Cl` (centres undefined), the Stability result in data set [2] is reported as “Stable”.
